Test results published in patent publication US7235534B2, “Antisense strategy to modulate estrogen receptor response (ER α and/or ER β )” (Institut de Cardiologie de Montreal, priority 2001, dated 2007).

System: p42/44 MAPK
Test: Western blot of p42/44 MAPK phosphorylation in PAEC
Type: cell-based, porcine
Conditions: for decrease of p42/44 MAPK phosphorylation induced by 5 min stimulation of 17βE: antagonist 10^−7M 5 min prior to 17βE 10^−8M
Experimental: Confluent PAEC and PSMC were starved for 7 hours in DMEM and antibiotics. Culture medium was removed, and cells were rinsed twice with ice-cold DMEM. PSMC were incubated on ice in DMEM with or without 17βE (10^−8M) for 30 min, incubated at 37° C. for 5, 10, 15 and 30 min, then brought back on ice. Cell were then rinsed with cold DMEM, incubated on ice in DMEM, bovine serum albumin (1 mg/ml), PDGF-BB (10 ng/ml) for 30 min, incubated at 37° C. for 5 min, and then brought back on ice. […] […] Total proteins were prepared by the addition of 500 μl of lysis buffer containing phenylmethylsulfonyl fluoride 1 mM, leupeptin 10 μg/ml, aprotinin 30 μg/ml, and NaVO3 1 mM (Sigma). Plates were incubated at 4° C. for 30 min and scraped, and the protein concentration was determined with a Bio-Rad protein kit (Bio-Rad, Hercules, Calif.). Same protein quantity for each cell type and condition were dissolved in Laemmli's buffer, boiled for 5 min in reducing conditions, separated by a 10% gradient SDS-PAGE (Protean II kit; Bio-Rad), and transblotted onto a 0.45-μm polyvinylidene difluoride membranes (Millipore Corp., Bedford, Mass.). The membranes were blocked in 5% Blotto-TTBS (5% nonfat dry milk; Bio-Rad), 0.05% Tween 20, 0.15 M NaCl, 25 mM Tris-HCl, pH 7.5) for 1 h at room temperature with gentle agitation and incubated overnight at 4° C. in 0.5% Blotto-TTBS with the addition of an anti-phospho p42/44 MAPK or an anti-phospho p38 MAPK rabbit polyclonal antiserums (α-pp42/44; dilution of 1:10 000, and α-pp38; dilution 1:5000, New England BioLabs, Beverly, Mass.). Membranes were washed with TTBS, and incubated at room temperature with an anti-rabbit IgG antibody coupled to horseradish peroxidase (dilution 1:10 000–1:20 000, Santa Cruz Biotechnology, Santa Cruz, Calif.) in 0.5% Blotto-TTBS for 30 min. […] Kaleidoscope molecular weight and SDS-plyacrylamide gel electrophoresis broad range marker proteins (Bio-Rad) were used as standards for SDS-plyacrylamide gel electrophoresis. Digital image densitometry (PDI Bioscience, Aurora, ON) was performed on x-ray film to determine relative percentages of p42/44 and p38 MAPK phosphorylation.
Confluent PAEC and PSMC were preteated with or without antisense sequences as described above for Western Blot analysis. Cells were rinsed twice with ice-cold DMEM. PSMC and PAEC were stimulated with or without 17βE (10^−8 mol/L) as previously described (Geraldes P). Briefly, PSMC were incubated on ice in DMEM with or without 17βE (10^−8 mol/L) for 30 minutes, incubated at 37° C. for 30 minutes, then brought back on ice. Cells were then rinsed with cold DMEM, incubated on ice in DMEM, bovine serum albumin (1 mg/mL), PDGF-BB (10 ng/mL) for 30 minutes, incubated at 37° C. for 5 and 30 minutes, and then brought back on ice. PAEC were incubated on ice in DMEM with or without 17βE (10^−8 mol/L) for 30 minutes, then incubated at 37° C. for 5 and 30 minutes and brought back on ice. Total proteins were prepared-by the addition of 500 μL of lysis buffer, incubated at 4° C. for 30 minutes and scraped to collect the proteins. Same quantity of protein was separated by a 10% gradient SDS-PAGE (Protean II kit; Bio-Rad), and transblotted onto a 0.45-μm polyvinylidene difluoride membranes (Millipore Corp.). The membranes were blocked for 1 hour at room temperature with gentle agitation and incubated overnight at 4° C. in 0.5% Blotto-TTBS with the addition of an antiphospho p42/44 MAPK or an antiphospho p38 MAPK rabbit polyclonal antiserums (α-pp42/44; dilution of 1:10000, and α-pp38; dilution 1:5 000, New England BioLabs, Beverly, Mass.). Membranes were washed with TTBS, and incubated at room temperature with an anti-rabbit IgG antibody coupled to horseradish peroxidase (dilution 1:10 000–1:20 000, Santa Cruz Biotechnology) in 0.5% Blotto-TTBS for 30 minutes. […] Digital image densitometry (PDI Bioscience) was performed on X-ray film to determine relative phosphorylation of p42/44 and p38 MAPK. […]

O=C(c1ccc(OCN2CCCCC2)cc1)c1c(-c2ccc(O)cc2)sc2cc(O)ccc12 [Ral, Raloxifen]
decrease of p42/44 MAPK phosphorylation induced by 5 min stimulation of 17βE: 66%

CC/C(=C(\c1ccc(O)cc1)c1ccc(OCCN(C)C)cc1)c1ccccc1 [4-OHT, 4-OH-Tamoxifen]
decrease of p42/44 MAPK phosphorylation induced by 5 min stimulation of 17βE: 44%

C[C@]12CC[C@@H]3c4ccc(O)cc4CC[C@H]3[C@@H]1CC[C@@H]2O [17βE, 17-beta-estradiol]
increase of p42/44 MAPK phosphorylation (17βE 10^−8M, 5 minutes, Example 1): 1122% | increase of p42/44 MAPK phosphorylation (17βE 10^−8M, 10 minutes): 1074% | increase of p42/44 MAPK phosphorylation (17βE 10^−8M, 15 minutes): 1420% | increase of p42/44 MAPK phosphorylation (17βE 10^−8M, 30 minutes): 1835% | increase of p42/44 MAPK phosphorylation (17βE 10^−8 mol/L, 5 minutes, Example 2): 329%

CC/C(=C(\c1ccccc1)c1ccc(OCCN(C)C)cc1)c1ccccc1 [Tam, Tamoxifen]
decrease of p42/44 MAPK phosphorylation induced by 5 min stimulation of 17βE: 36%
